PMC8791944, “GLUT3 inhibitor discovery through in silico ligand screening and in vivo validation in eukaryotic expression systems” (Scientific Reports, 2022)

Legend:
Type in all cases: cell-based
U937 leukemia cells = assay: MTT cancer cell viability assay, U937; details: U937, 48 h
Protocol: (§1) A possible therapeutic application of GLUT3 inhibitors is in oncology, especially for cancers in which GLUT3 is a poor prognosis marker. We tested the effect of GLUT3 inhibitors on the cell viability of several different cancer lines: myeloid leukemia (HL60 and U937), lung cancer (A549), colorectal adenocarcinoma (Caco-2), breast cancer (MCF7), hepatocellular carcinoma (HepG2), and choriocarcinoma (BeWo) cells. GLUT3 inhibitors, at five different concentrations, ranging from 2 to 100 µM, were incubated with cancer cells for 48 h. Then, cell viability was assessed with the MTT assay. […] G3iC and G3iD also affected the leukemia cell lines but at double the concentrations of G3iB and G3iE. […] G3iB had some cytotoxic activity (CC50 < 50 µM) against the highest number of cancer cell lines (HL60, U937, A549, HepG2, and MCF7).
(§2) Cancer cell viability in the presence of GLUT3 inhibitors was assayed using the MTT Cell Viability Kit (Biotium Inc, Freemont, CA) according to manufacturer’s instructions. Cancer cells were grown in the corresponding medium, at 37 °C and 5% CO2 in a humidified incubator. The media (Gibco) for leukemia cells (HL60 and U937), A549, MCF7, BeWo, and HepG2 cells were RPMI 1640, Ham’s F-12K, DMEM:F-12, Ham’s F-12K, and EMEM, respectively, all supplemented with 10% (v/v) fetal bovine serum (HyClone). Caco-2 cells were grown in EMEM supplemented with 20% (v/v) fetal bovine serum. Cells were detached from the culture flasks with Accutase (Innovative Cell Technologies, Inc., San Diego, CA) according to manufacturer’s instructions. Cells were seeded in 96-well plates, at a density of ~ 30,000 cells/well (in 100 µl fresh media) and incubated with varying concentrations of GLUT3 inhibitors for 48 h, at 37 °C and 5% CO2 in a humidified incubator. The inhibitors were dissolved in DMSO, at 100× the final concentration, so that 1 µl of the stock inhibitor concentration was added per well, making the final DMSO concentration 1% (v/v). Therefore, controls for 100% cell viability were cells with 1% (v/v) DMSO without the inhibitors. Controls for 0% cell viability were cells treated with 0.3% (v/v) Tween 20. For MTT assay, 10 µl of MTT reagent was added in each well followed by 3–4 h incubation at 37 °C and 5% CO2 in a humidified incubator. After thoroughly mixing in 200 µl DMSO in each well, the plates were put into a plate reader (BioTek Synergy H1), and the absorbances at 570 nm and 630 nm were measured with Gen5 program (BioTek Inc.). The experimental values represent Abs570 nm-Abs630 nm with each inhibitor condition and control being the average of three wells.
(§3) Supplementary Figure S8. Effect of GLUT3 inhibitors on the viability of various cancer cell lines. Cell viability was determined by MTT assay in A549 (lung cancer), BeWo (choriocarcinoma), Caco-2 (colon cancer), HepG2 (liver cancer), HL-60 (leukemia), MCF7 (breast cancer), and U937 (histiocytic lymphoma) cell lines. GLUT3 inhibitors at concentrations of 2, 5, 10, 20, 50, and 100 µM were incubated with cells in 96-well plates for 48 hours before the addition of the MTT reagent.

A549 (lung cancer) cells = assay: MTT cancer cell viability assay, A549; details: A549, 48 h
Protocol: as §1, §2, §3

HL60 leukemia cells = assay: MTT cancer cell viability assay, HL60; details: HL60, 48 h
Protocol: as §1, §2, §3

CC(=O)Nc1ccc(S(=O)(=O)Nc2ccc(Nc3cc(N(C)C)nc(C)n3)cc2)cc1 [G3iA, N-(4-{[(4-{[6-(dimethylamino)-2-methylpyrimidin-4-yl]amino}phenyl)amino]sulfonyl}phenyl)acetamide]
CC50 (U937 leukemia cells; Homo sapiens, U-937, 48 h): > 100 µM | CC50 (A549 (lung cancer) cells; Homo sapiens): > 100 µM | CC50 (HL60 leukemia cells; Homo sapiens, HL-60, 48 h): > 100 µM

Cc1cccnc1OC1CCN(c2cc(N3CCCC3CO)ncn2)CC1 (stereo not shown) [G3iC]
CC50 (U937 leukemia cells; Homo sapiens, U-937, 48 h): > 50 µM | CC50 (A549 (lung cancer) cells): 21.6 ± 2.5 µM | CC50 (A549 (lung cancer) cells; Homo sapiens): ~22 µM | CC50 (HL60 leukemia cells; Homo sapiens, HL-60, 48 h): 31.1 ± 3.8 µM

Cc1cc(NC(=O)CCC2Cc3ccccc3NC2=O)nc(-c2ccccc2)n1 (stereo not shown) [G3iD]
CC50 (U937 leukemia cells; Homo sapiens, U-937, 48 h): > 50 µM | CC50 (A549 (lung cancer) cells; Homo sapiens): 32.5 ± 14.2 µM | CC50 (HL60 leukemia cells; Homo sapiens, HL-60, 48 h): 28.7 ± 2.1 µM

O=C(Nc1cccc(Cl)c1)c1cccc(NC(=O)c2cccc([N+](=O)[O-])c2)c1 [G3iE, N-{3-[(3-chloroanilino)carbonyl]phenyl}-3-nitrobenzamide]
CC50 (U937 leukemia cells; Homo sapiens, U-937, 48 h): < 20 µM | CC50 (U937 leukemia cells): ~18 µM | CC50 (A549 (lung cancer) cells): > 50 µM | CC50 (A549 (lung cancer) cells; Homo sapiens): ~33 µM | CC50 (HL60 leukemia cells): 15.7 ± 0.8 µM | CC50 (HL60 leukemia cells; Homo sapiens, HL-60, 48 h): < 20 µM

Cc1ccccc1CN(Cc1nnc(C(C)(C)C)o1)c1ccc2nc(O)[nH]c2c1 [G3iF]
CC50 (U937 leukemia cells; Homo sapiens, U-937, 48 h): > 50 µM | CC50 (A549 (lung cancer) cells; Homo sapiens): > 100 µM | CC50 (HL60 leukemia cells; Homo sapiens, HL-60, 48 h): > 50 µM
